# Target: T1, hDGAT1 (Homo sapiens, UniProt O75907)
# T1 construct: made in house; host or cells: Sf9 insect cells (baculovirus); microsomal fraction
# T1 sequence (O75907 1-488): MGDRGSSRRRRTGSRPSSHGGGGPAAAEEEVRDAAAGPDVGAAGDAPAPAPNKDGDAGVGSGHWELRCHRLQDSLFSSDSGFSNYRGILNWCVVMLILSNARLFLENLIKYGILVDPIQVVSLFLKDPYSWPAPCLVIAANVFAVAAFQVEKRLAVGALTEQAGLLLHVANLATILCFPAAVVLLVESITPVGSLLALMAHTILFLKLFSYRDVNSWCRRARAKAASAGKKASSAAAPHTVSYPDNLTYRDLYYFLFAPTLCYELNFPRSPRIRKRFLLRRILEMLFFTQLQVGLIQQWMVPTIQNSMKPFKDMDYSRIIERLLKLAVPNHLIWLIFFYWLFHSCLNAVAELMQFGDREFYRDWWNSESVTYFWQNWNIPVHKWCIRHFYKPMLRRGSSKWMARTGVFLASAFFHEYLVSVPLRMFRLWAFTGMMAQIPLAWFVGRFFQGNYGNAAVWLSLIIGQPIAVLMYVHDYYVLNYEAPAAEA
# Assay: In-vitro DGAT1 assay with hDGAT1 microsomes from Sf9 cells (14C oleoyl CoA, scintillation counting)
# Format: biochemical
# Settings: at 1 μM
# Experimental: Sf9 cells were grown in T25 flasks containing Graces's Insect media with 10% FBS with antibiotic (100 units/mL penicillin, 100 μg/mL streptomycin sulphate, 0.25 μg/mL Amptotericin B as Fungizone) grown in a 27° C. incubator.
# hDGAT10RF expression clone (RZPDo839C09146 in pDEST vector) was obtained from RZPD, German Science Center for Genomes research, Germany. hDGAT1 bacmid DNA was obtained by transformation of the hDGAT1 expression clone into DH10Bac E. coli competent cells. Approximately 1 μg of hDGAT1 bacmid DNA was infected into Sf9 cells with Cellfectin (Invitrogen) reagent. Following infection, Sf9 cells were incubated at 27° C. for 30 min. Five hours after infection, the media was replaced with growth media containing antibiotics (100 units/mL penicillin, 100 μg/mL streptomycin sulphate, 0.25 μg/mL Amptotericin B as Fungizone) and incubated at 27° C. for 72 h. The supernatant containing the virus was centrifuged at 1500×g for 5 min, passed through 0.22 μm filter, and subsequently stored at 4° C. The virus was further amplified three more times by re-infection of Sf9 cells and the viral titer was determined by plaque assay.
# Sf9 cells were seeded in spinner flasks on day 0 at a cell density of 1×10^6 and infected on day 1 with hDGAT1 baculovirus at a multiplicity of infection (MOI) of 5 and a cell density of 2×10^6. On day 3 (or 66-72 h), cells were harvested and centrifuged at 2500×g for 10 min. Pellet was resuspended in lysis buffer (100 mM sucrose, 50 mM KCl, 40 mM KH2PO4, 30 mM EDTA, pH 7.2) and passed through 21-gauge needle approximately 10 times. The mixture was centrifuged at 12,000 rpm in a Sigma 12158-H rotor at 4° C. for 30 min. The supernatant was subjected to centrifugation at 35,000 rpm in a Beckman Ti-45 rotor at 4° C. for 1 h. The resultant pellet containing the microsomes wasere resuspended overnight in 1 mL of lysis buffer and total protein concentration was estimated using Bradford Reagent. Microsomes were aliquoted and stored at −80° C.
# Frozen aliquots of hDGAT1 containing microsomes were thawed (5-10 mg/mL total protein) on ice and diluted to a working stock of 1 mg/mL with DGAT Assay Buffer (DAB). The DGAT reaction assay was performed by following the procedure described in U.S. Pat. No. 6,607,893 with some modifications that are described below.
# 1 mL stock solution of DGAT1 substrate mixture contains 5.6 μL of ^14C oleoyl CoA (16.8 nCi) and […] of 1,2-dioleoyl-sn-glycerol (1228.5 μM) 1,2-dioleoyl-sn-glycerol stock (19.5 mM) was prepared by dissolving 25 mg of 1,2-dioleoyl-sn-glycerol (Sigma, US) in 2060 μL of acetone.
# The assay was performed in duplicates in a reaction volume of 100 μL.
# The reaction was started by the addition of 2.5 μL of 1 mg/mL of microsomes (iv) to the mixture of (i), (ii) and (iii), and incubated at 37° C. for 10 min. The reaction was stopped by the addition of 300 μL of Alkaline Ethanol Stop Solution Mix [AESSM; 12.5% of 100% non-denatured ethanol, 10% deionized water, 2.5% 1N NaOH, 75% stop solution (78.4% isopropanol, 19.6% n-heptane, 2% deionized water)] followed by addition of 600 μL of n-heptane. The mixture was vortexed and the triglycerides formed were extracted into the organic heptane phase. 250 μL of the heptane phase was added into 4 mL scintillation cocktail (66.72% toluene, 33.3% TritonX-100, 0.5% PPO, 0.02% POPOP) and counted on a liquid scintillation counter for 1 min. Data was collected and plotted as a function of concentration in nM versus percentage inhibition of hDGAT1 by the compounds of present invention.
row,Structure (SMILES),Percentage inhibition of hDGAT1
1,"CC(C)(CC(=O)O)Cc1ncc(-c2ccc(NC(=O)c3ccc(-c4ccccc4)cc3)cc2)s1 [Example 77, 4-(5-(4-Biphenyl-4-ylcarboxamidophenyl)thiazol-2-yl)-3,3-dimethylbutanoic acid]",++ (>50 % Inhibition)
2,"COC(=O)C(C)(C)CCc1ncc(-c2ccc(NC(=O)Nc3ccc(F)cc3)cc2)s1 [Example 96, Methyl 4-(5-(4-(3-(4-fluorophenyl)ureido)phenyl)thiazol-2-yl-2,2-dimethyl butanoate]",++ (>50 % Inhibition)
3,"CC(C)(CCc1ncc(-c2ccc(NC(=O)c3ccc(-c4ccccc4)cc3)cc2)s1)C(=O)O [Example 108, 4-(5-(4-Biphenyl-4-ylcarboxamidophenyl)thiazol-2-yl)-2,2-dimethylbutanoic acid]",++ (>50 % Inhibition)

# Same assay, conditions: read-out: Percentage inhibition of hDGAT1
row,Structure (SMILES),inhibition at 1 µM [%]
1,"CC(C)(CC(=O)O)Cc1ncc(-c2ccc(NC(=O)Nc3ccc(Cl)cc3Oc3ccccc3)cc2)s1 [Example 73, 4-(5-(4-(3-(4-Chloro-2-phenoxyphenyl)ureido)phenyl)thiazol-2-yl)-3,3-dimethyl butanoic acid]",> 50
2,"CC(C)(CCc1ncc(-c2ccc(NC(=O)Nc3cccc(C(F)(F)F)c3)cc2)s1)C(=O)O [Example 88, 2,2-Dimethyl-4-(5-(4-(3-(3-(trifluoromethyl)phenyl)ureido)phenyl)thiazol-2-yl)butanoic acid]",> 50
3,"CC(C)(CCc1ncc(-c2ccc(NC(=O)Nc3ccccc3Cl)cc2)s1)C(=O)O [Example 90, 4-(5-(4-(3-(2-Chlorophenyl)ureido)phenyl)thiazol-2-yl)-2,2-dimethylbutanoic acid]",> 50
4,"CC(C)(CCc1ncc(-c2ccc(NC(=O)Nc3ccc(Cl)cc3Oc3ccccc3)cc2)s1)C(=O)O [Example 92, 4-(5-(4-(3-(4-Chloro-2-phenoxyphenyl)ureido)phenyl)thiazol-2-yl)-2,2-dimethylbutanoic acid]",> 50
5,"CC(C)(CCc1ncc(-c2ccc(NC(=O)NC3CCCCC3)cc2)s1)C(=O)O [Example 94, 4-(5-(4-(3-Cyclohexylureido)phenyl)thiazol-2-yl)-2,2-dimethyl butanoic acid]",> 50
6,"COc1ccc(NC(=O)Nc2ccc(-c3cnc(CCC(C)(C)C(=O)O)s3)cc2)cc1 [Example 98, 4-(5-(4-(3-(4-Methoxyphenyl)ureido)phenyl)thiazol-2-yl)-2,2-dimethyl butanoic acid]",> 50
7,"CC(C)(CCc1ncc(-c2ccc(NC(=O)c3ccc(C(C)(C)C)cc3)cc2)s1)C(=O)O [Example 106, 4-(5-(4-(4-tert-Butylbenzamido)phenyl)thiazol-2-yl)-2,2-dimethylbutanoic acid]",> 50

# Next, values leading:
row,inhibition at 1 µM [%],Structure (SMILES)
1,> 50,"CC(C)(CC(=O)O)Cc1ncc(-c2ccc(NC(=O)Nc3cccc(C(F)(F)F)c3)cc2)s1 [Example 69, 3,3-Dimethyl-4-(5-(4-(3-(3-(trifluoromethyl)phenyl)ureido)phenyl)thiazol-2-yl)butanoic acid]"
2,> 50,"CC(C)(CC(=O)O)Cc1ncc(-c2ccc(NC(=O)Nc3ccccc3Cl)cc2)s1 [Example 71, 4-(5-(4-(3-(2-Chlorophenyl)ureido)phenyl)thiazol-2-yl)-3,3-dimethyl butanoic acid]"
3,> 50,"CC(C)(CC(=O)O)Cc1ncc(-c2ccc(NC(=O)c3ccc(C(C)(C)C)cc3)cc2)s1 [Example 75, 4-(5-(4-(4-tert-Butylbenzamido)phenyl)thiazol-2-yl)-3,3-dimethylbutanoic acid]"
4,> 50,"CCCCCc1ccc(C(=O)Nc2ccc(-c3cnc(CC(C)(C)CC(=O)O)s3)cc2)cc1 [Example 79, 3,3-Dimethyl-4-(5-(4-(4-pentylbenzamido)phenyl)thiazol-2-yl)butanoic acid]"
5,20 to 50,"COc1ccc(S(=O)(=O)Nc2ccc(-c3cnc(CC(C)(C)CC(=O)O)s3)cc2)c(OC)c1 [Example 81, 4-(5-(4-(2,4-Dimethoxyphenylsulfonamido)phenyl)thiazol-2-yl)-3,3-dimethylbutanoic acid]"
